Assay results taken from US20120258980A1, “Antibacterial Agent for Drug-Resistant Bacteria, Method for Screening for Same, and Use of Same” (priority 2009, published 2012).
≈ marks a conversion by molar mass, not a printed value. Where two headings read alike, the source gives them in different places.

What was measured:
[1] = system: methicillin-susceptible S. aureus (MSSA), MRSA and mutants thereof; assay: MIC measurement, Test Example 3 (MSSA, MRSA and sequential gyrA/grlA quinolone-resistant mutants); assay type: cell-based, Staphylococcus aureus; conditions: Staphylococcus aureus
Source text: That is, the first-step quinolone-resistant mutants are bacterial strains which are the same as their parent strains (clinical isolates) except that the genes shown in the corresponding parts of Table 1-1 are mutated. The second-step quinolone-resistant mutants are bacterial strains which are the same as the first-step quinolone-resistant mutants except that the genes shown in the corresponding parts of Table 1-1 are further mutated. The third-step quinolone-resistant mutants are bacterial strains which are the same as the second-step quinolone-resistant mutants except that the genes shown in the corresponding parts of Table 1-1 are further mutated. The fourth-step quinolone-resistant strain is a bacterial strain which is the same as the third-step quinolone-resistant mutant bacteria except that the gene shown in the corresponding part of Table 1-1 is further mutated.
(§1) Each of the bacterial strains listed in Table 1-1 was shake-cultured at 37° C. overnight in 4 mL of a medium (Tryptical Soy Broth: TSB, product of Becton Dickinson and Company). FDA209P was used as a control.
(§2) After completion of culturing, the resultant culture was suspended in a cation-adjusted Mueller Hinton Broth (CAMHB, product of Becton Dickinson and Company). Then, the obtained bacterial culture was adjusted in absorbance with the CAMHB so that the absorbance at 578 nm of the bacterial culture was adjusted to 0.3 measured by an absorption spectrometer. In addition, the resultant bacterial culture was 500-fold diluted with the CAMHB.
(§3) Each of the 500-fold diluted, pre-cultured bacterial cultures was added at 50 μL/well to the CAMHB containing the quinolones and the nybomycins at various concentrations (50 μL/well), followed by statically culturing at 37° C. overnight.
(§4) After completion of culturing, the growth of the bacteria was visually determined based on turbidity to measure MIC in each bacterial strain.

VRSA clinical isolates = assay: microbe, parasite or virus in culture; assay type: cell-based; conditions: Staphylococcus aureus
Protocol: as §1, §2, §3, §4
Here, the glycopeptides used were VCM and TEIC. The β-lactam used was OXA.

Enterococcus faecalis = assay: MIC measurement, Test Example 6 (enterococcus); assay type: cell-based; conditions: for MIC: Enterococcus faecalis, read-out: MIC
Protocol: as §1, §2, §3, §4
Quinolones and nybomycins were evaluated for antibacterial activity against Enterococcus faecalis shown in Table 6, wherein the other strains than NCTC12201 and NCTC12203 were subdivided from Shionogi & Co., Ltd (note that these strains are available also from the Department of Bacteriology, Juntendo University). The NCTC strains are both vancomycin-resistant E. faecalis and available from the National Collection of Type Cultures (NCTC).

[2] = system: MRSA, CA-MRSA and MSSA of Staphylococcus aureus; assay: MIC measurement, Test Example 4 (MRSA, CA-MRSA and MSSA strains); assay type: cell-based; conditions: Staphylococcus aureus
How it was run: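 S. aureus strains (FDA209P control) grown overnight in TSB at 37° C, resuspended in CAMHB, adjusted to A578 0.3 and diluted 500-fold. Equal volume added to CAMHB with serial compound concentrations, incubated statically overnight at 37° C. MIC read visually as lowest concentration without turbidity.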

Cc1cc(=O)n2c3c(c4c(cc13)c(CO)cc(=O)n4C)OC2 [NM, nybomycin] gave an MIC ([1]; FDA209P / MRSA / MSSA, FDA209P (MSSA), control, read-out: MIC) greater than 64 µg/mL, an MIC ([1]; MR5867 (MRSA), clinical isolate parent strain, no mutation) greater than 64 µg/mL and an MIC ([1]; MR5867-1, first-step quinolone-resistant mutant, grlA E84K) greater than 64 µg/mL. It also gave an MIC ([1]; MS5935 (MSSA), clinical isolate parent strain, no mutation, read-out: MIC) greater than 64 µg/mL, an MIC ([1]; MS5935-1, first-step quinolone-resistant mutant, grlA S80F) greater than 64 µg/mL and an MIC ([1]; MS5952 (MSSA), clinical isolate parent strain, no mutation, read-out: MIC) greater than 64 µg/mL. For the same compound, the MIC ([1]; MS5952-1, first-step quinolone-resistant mutant, grlA S80Y) was greater than 64 µg/mL, the MIC (VRSA clinical isolates; VRS1, VRSA, Michigan) was 0.125 µg/mL (≈ 0.419 µM) and the MIC (VRSA clinical isolates; VRS2, VRSA, Pennsylvania) was 0.25 µg/mL (≈ 0.838 µM). It also gave an MIC (VRSA clinical isolates; VRS3, VRSA, New York) of 0.125 µg/mL (≈ 0.419 µM), an MIC (VRSA clinical isolates; VRS4, VRSA, New York) of 0.125 µg/mL (≈ 0.419 µM) and an MIC (VRSA clinical isolates; VRS5, VRSA, Michigan) of no more than 0.063 µg/mL. For the same compound, the MIC (VRSA clinical isolates; VRS6, VRSA, Michigan) was no more than 0.063 µg/mL, the MIC (VRSA clinical isolates; VRS7, VRSA, Michigan) was 0.5 µg/mL (≈ 1.68 µM) and the MIC (Enterococcus faecalis; E. faecalis 36-15672, quinolone-susceptible enterococci) was greater than 64 µg/mL. The MIC (Enterococcus faecalis; E. faecalis 36-15673, quinolone-susceptible enterococci) was greater than 64 µg/mL, the MIC (Enterococcus faecalis; E. faecalis 36-15678, quinolone-susceptible enterococci) was greater than 64 µg/mL and the MIC (Enterococcus faecalis; E. faecalis 36-15686, quinolone-resistant enterococci) was 0.5 µg/mL (≈ 1.68 µM). The MIC (Enterococcus faecalis; E. faecalis 36-15688, quinolone-susceptible enterococci) was greater than 64 µg/mL, the MIC (Enterococcus faecalis; E. faecalis 36-15694, quinolone-resistant enterococci) was 1 µg/mL (≈ 3.35 µM) and the MIC (Enterococcus faecalis; E. faecalis 36-15696, quinolone-susceptible enterococci) was greater than 64 µg/mL. It also gave an MIC (Enterococcus faecalis; E. faecalis 36-15703, quinolone-resistant enterococci) of 2 µg/mL (≈ 6.7 µM), an MIC (Enterococcus faecalis; E. faecalis 36-15716, quinolone-resistant enterococci) of 1 µg/mL (≈ 3.35 µM) and an MIC (Enterococcus faecalis; E. faecalis 36-15718, quinolone-susceptible enterococci) of 32 µg/mL (≈ 107 µM). For the same compound, the MIC (Enterococcus faecalis; E. faecalis 36-15720, quinolone-susceptible enterococci) was greater than 64 µg/mL, the MIC (Enterococcus faecalis; E. faecalis 36-15722, quinolone-resistant enterococci) was 1 µg/mL (≈ 3.35 µM) and the MIC (Enterococcus faecalis; E. faecalis 36-15726, quinolone-resistant enterococci) was 0.5 µg/mL (≈ 1.68 µM). The MIC (Enterococcus faecalis; E. faecalis 36-15730, quinolone-susceptible enterococci) was greater than 64 µg/mL, the MIC (Enterococcus faecalis; E. faecalis 36-15736, quinolone-susceptible enterococci) was greater than 64 µg/mL and the MIC (Enterococcus faecalis; E. faecalis 36-15741, quinolone-susceptible enterococci) was greater than 64 µg/mL. For the same compound, the MIC (Enterococcus faecalis; NCTC 12201 / VRE, E. faecalis NCTC12201, vancomycin-resistant (VRE), quinolone-susceptible enterococci) was 8 µg/mL (≈ 26.8 µM), the MIC (Enterococcus faecalis; NCTC 12203 / VRE, E. faecalis NCTC12203, vancomycin-resistant (VRE), quinolone-susceptible enterococci) was 16 µg/mL (≈ 53.6 µM) and the “antibacterial activity, comparison between NM and DNM” value (Enterococcus faecalis; against enterococci) was “higher antibacterial activity against enterococci than DNM”. The MIC ([2]; ATCC 29213 / MRSA / MSSA, ATCC 29213, MSSA) was 64 µg/mL (≈ 215 µM), the MIC ([2]; COL, MRSA) was greater than 64 µg/mL and the MIC ([2]; FDA209P / MRSA / MSSA, FDA209P, MSSA) was 64 µg/mL (≈ 215 µM). It also gave an MIC ([2]; ISA12-1, MRSA) greater than 64 µg/mL, an MIC ([2]; ISA12-2, MRSA) greater than 64 µg/mL and an MIC ([2]; ISA35-1, MRSA) greater than 64 µg/mL. For the same compound, the MIC ([2]; ISA37-1, MSSA) was greater than 64 µg/mL, the MIC ([2]; ISA49-1, MSSA) was greater than 64 µg/mL and the MIC ([2]; ISA51-1, MSSA) was greater than 64 µg/mL. For the same compound, the MIC ([2]; ISA56-3, MRSA) was greater than 64 µg/mL, the MIC ([2]; ISA58-1, MRSA) was 16 µg/mL (≈ 53.6 µM) and the MIC ([2]; ISA62-1, MRSA) was greater than 64 µg/mL. For the same compound, the MIC ([2]; ISA73-1, MSSA) was greater than 64 µg/mL, the MIC ([2]; KBSA32, MRSA) was greater than 64 µg/mL and the MIC ([2]; KBSA34, MRSA) was greater than 64 µg/mL. For the same compound, the MIC ([2]; KBSA72, MRSA) was no more than 0.063 µg/mL, the MIC ([2]; KBSA96, MRSA) was 0.125 µg/mL (≈ 0.419 µM) and the MIC ([2]; KBSA171, MRSA) was 0.25 µg/mL (≈ 0.838 µM). It also gave an MIC ([2]; KSA24, MRSA) of 0.5 µg/mL (≈ 1.68 µM), an MIC ([2]; KSA31, MRSA) of 1 µg/mL (≈ 3.35 µM) and an MIC ([2]; KSA36, MRSA) of no more than 0.063 µg/mL. It also gave an MIC ([2]; MRSA / MSSA / NCTC 8325, NCTC 8325, MSSA) greater than 64 µg/mL, an MIC ([2]; MRSA / MSSA / USA300, USA300 FPR3757, CA-MRSA) of 0.25 µg/mL (≈ 0.838 µM) and an MIC ([2]; MW2, CA-MRSA) of 64 µg/mL (≈ 215 µM). The MIC ([2]; N315, MRSA) was 64 µg/mL (≈ 215 µM).
